The NIST ThermoML archive (doi:10.1021/je049973v)
Numbers after ± are expanded uncertainties.

Conditions: Liquid; for speed of sound: Pulse-echo method; for mass density: Vibrating tube method

CCCCCCCCCCCCCCCCCCc1ccccc1 [octadecylbenzene]
speed of sound (313.15 K, 100 kPa): 1392.9 ± 3.5 m/s | mass density (313.15 K, 100 kPa): 840.55 ± 1.2 kg/m3 | mass density (313.15 K, 5000 kPa): 843.37 ± 1.2 kg/m3 | speed of sound (313.15 K, 10000 kPa): 1439.6 ± 3.6 m/s | mass density (313.15 K, 10000 kPa): 846.27 ± 1.2 kg/m3 | mass density (313.15 K, 15000 kPa): 849.15 ± 1.2 kg/m3 | speed of sound (313.15 K, 20000 kPa): 1484.1 ± 3.6 m/s | mass density (313.15 K, 25000 kPa): 854.46 ± 1.2 kg/m3 | speed of sound (313.15 K, 30000 kPa): 1525.8 ± 3.7 m/s | mass density (313.15 K, 30000 kPa): 856.89 ± 1.2 kg/m3 | mass density (313.15 K, 35000 kPa): 859.36 ± 1.2 kg/m3 | speed of sound (313.15 K, 40000 kPa): 1564.8 ± 3.8 m/s | mass density (313.15 K, 40000 kPa): 861.48 ± 1.3 kg/m3 | mass density (313.15 K, 45000 kPa): 864.12 ± 1.3 kg/m3 | speed of sound (313.15 K, 50000 kPa): 1602.4 ± 3.8 m/s | mass density (313.15 K, 50000 kPa): 866.37 ± 1.3 kg/m3 | mass density (313.15 K, 55000 kPa): 868.59 ± 1.3 kg/m3 | speed of sound (313.15 K, 60000 kPa): 1638.1 ± 3.9 m/s | mass density (313.15 K, 60000 kPa): 870.16 ± 1.3 kg/m3 | speed of sound (313.15 K, 70000 kPa): 1672.1 ± 4 m/s | speed of sound (313.15 K, 80000 kPa): 1704.7 ± 4 m/s | speed of sound (323.15 K, 100 kPa): 1357.8 ± 3.4 m/s | mass density (323.15 K, 100 kPa): 833.94 ± 1.2 kg/m3 | mass density (323.15 K, 5000 kPa): 836.91 ± 1.2 kg/m3 | speed of sound (323.15 K, 10000 kPa): 1406.8 ± 3.5 m/s | mass density (323.15 K, 10000 kPa): 840.02 ± 1.2 kg/m3 | mass density (323.15 K, 15000 kPa): 842.88 ± 1.2 kg/m3 | speed of sound (323.15 K, 20000 kPa): 1452.4 ± 3.6 m/s | mass density (323.15 K, 25000 kPa): 848.32 ± 1.2 kg/m3 | speed of sound (323.15 K, 30000 kPa): 1495.5 ± 3.7 m/s | mass density (323.15 K, 30000 kPa): 850.96 ± 1.2 kg/m3 | mass density (323.15 K, 35000 kPa): 853.46 ± 1.2 kg/m3 | speed of sound (323.15 K, 40000 kPa): 1535.6 ± 3.7 m/s | mass density (323.15 K, 40000 kPa): 856 ± 1.3 kg/m3 | mass density (323.15 K, 45000 kPa): 858.41 ± 1.3 kg/m3 | speed of sound (323.15 K, 50000 kPa): 1574 ± 3.8 m/s | mass density (323.15 K, 50000 kPa): 860.91 ± 1.3 kg/m3 | mass density (323.15 K, 55000 kPa): 863.12 ± 1.3 kg/m3 | speed of sound (323.15 K, 60000 kPa): 1610.3 ± 3.9 m/s | mass density (323.15 K, 60000 kPa): 865.36 ± 1.3 kg/m3 | speed of sound (323.15 K, 70000 kPa): 1645.1 ± 3.9 m/s | speed of sound (323.15 K, 80000 kPa): 1678.7 ± 4 m/s | speed of sound (323.15 K, 90000 kPa): 1710.4 ± 4 m/s | speed of sound (323.15 K, 100000 kPa): 1741.3 ± 4.1 m/s | speed of sound (323.15 K, 110000 kPa): 1771.2 ± 4.1 m/s | speed of sound (323.15 K, 120000 kPa): 1799.2 ± 4.2 m/s | speed of sound (333.15 K, 100 kPa): 1325.5 ± 3.4 m/s | mass density (333.15 K, 100 kPa): 827.32 ± 1.2 kg/m3 | mass density (333.15 K, 5000 kPa): 830.4 ± 1.2 kg/m3 | speed of sound (333.15 K, 10000 kPa): 1374.8 ± 3.5 m/s | mass density (333.15 K, 10000 kPa): 833.56 ± 1.2 kg/m3 | mass density (333.15 K, 15000 kPa): 836.59 ± 1.2 kg/m3 | speed of sound (333.15 K, 20000 kPa): 1422.6 ± 3.5 m/s | mass density (333.15 K, 25000 kPa): 842.3 ± 1.2 kg/m3 | speed of sound (333.15 K, 30000 kPa): 1466.1 ± 3.6 m/s | mass density (333.15 K, 30000 kPa): 845.04 ± 1.2 kg/m3 | mass density (333.15 K, 35000 kPa): 847.71 ± 1.2 kg/m3 | speed of sound (333.15 K, 40000 kPa): 1507.5 ± 3.7 m/s | mass density (333.15 K, 40000 kPa): 850.3 ± 1.2 kg/m3 | mass density (333.15 K, 45000 kPa): 852.76 ± 1.3 kg/m3 | speed of sound (333.15 K, 50000 kPa): 1546.7 ± 3.7 m/s | mass density (333.15 K, 50000 kPa): 855.26 ± 1.3 kg/m3 | mass density (333.15 K, 55000 kPa): 857.46 ± 1.3 kg/m3 | speed of sound (333.15 K, 60000 kPa): 1583.5 ± 3.8 m/s | mass density (333.15 K, 60000 kPa): 859.86 ± 1.3 kg/m3 | speed of sound (333.15 K, 70000 kPa): 1619.1 ± 3.9 m/s | speed of sound (333.15 K, 80000 kPa): 1652.8 ± 3.9 m/s | speed of sound (333.15 K, 90000 kPa): 1685.7 ± 4 m/s | speed of sound (333.15 K, 100000 kPa): 1717 ± 4 m/s | speed of sound (333.15 K, 110000 kPa): 1747.3 ± 4.1 m/s | speed of sound (333.15 K, 120000 kPa): 1775.7 ± 4.1 m/s | speed of sound (333.15 K, 130000 kPa): 1803.9 ± 4.2 m/s | speed of sound (333.15 K, 140000 kPa): 1830.9 ± 4.2 m/s | speed of sound (333.15 K, 150000 kPa): 1857.5 ± 4.3 m/s | speed of sound (343.15 K, 100 kPa): 1292.7 ± 3.3 m/s | mass density (343.15 K, 100 kPa): 820.78 ± 1.2 kg/m3 | mass density (343.15 K, 5000 kPa): 824.1 ± 1.2 kg/m3 | speed of sound (343.15 K, 10000 kPa): 1344.1 ± 3.4 m/s | mass density (343.15 K, 10000 kPa): 827.33 ± 1.2 kg/m3 | mass density (343.15 K, 15000 kPa): 830.48 ± 1.2 kg/m3 | speed of sound (343.15 K, 20000 kPa): 1392.8 ± 3.5 m/s | mass density (343.15 K, 25000 kPa): 836.54 ± 1.2 kg/m3 | speed of sound (343.15 K, 30000 kPa): 1437.7 ± 3.6 m/s | mass density (343.15 K, 30000 kPa): 839.35 ± 1.2 kg/m3 | mass density (343.15 K, 35000 kPa): 841.97 ± 1.2 kg/m3 | speed of sound (343.15 K, 40000 kPa): 1480.2 ± 3.6 m/s | mass density (343.15 K, 40000 kPa): 844.62 ± 1.2 kg/m3 | mass density (343.15 K, 45000 kPa): 847.32 ± 1.2 kg/m3 | speed of sound (343.15 K, 50000 kPa): 1519.9 ± 3.7 m/s | mass density (343.15 K, 50000 kPa): 849.82 ± 1.3 kg/m3 | mass density (343.15 K, 55000 kPa): 852.25 ± 1.3 kg/m3 | speed of sound (343.15 K, 60000 kPa): 1558.1 ± 3.8 m/s | mass density (343.15 K, 60000 kPa): 854.6 ± 1.3 kg/m3
